What was measured:
Format in all cases: cell-based
[1] = system: virus HIV-1 (souche HTLV-IIIB); experiment: anti-HIV activity in HIV-infected MT4 cells (MTT method)
Experimental: Les produits (AZT, AZT-5′ hémisuccinyl et AZT 5′-leucyl) à différentes concentrations ont été mis en présence de cellules MT4 (4 X 10⁴ cellules par puits de microtray) infectées ou non avec 100 CCID₅₀ de virus HIV-1 (souche HTLV-IIIB). La CCID₅₀ représente la quantité de virus à rajouter pour obtenir une infection de 50 % des cellules (dose infectieuse de cellules en culture 50).
Après cinq jours d'incubation à 37°C, le nombre de cellules vivantes a été déterminé par la méthode au MTT, basée sur la réduction par les cellules vivantes du 3′-(4, 5-diméthylthiazol-2-yl)-2,5-diphényltétrazoliumbromide, jaune, en formazan, bleu. L'activité antivirale et la cytotoxicité sont exprimées sous forme de ED₅₀ et de CD₅₀. La CD₅₀ représente la dose qui tue 50 % des cellules non infectées et la ED₅₀ représente la dose qui protège 50 % des cellules de l'infection virale.
La même expérience que celle décrite ci-avant (exemple 9.1)) a été réalisée, mais en présence de thymidine 250 µM et de 2′déoxycytidine 500 µM. En effet l'AZT entre en compétition avec la thymidine au niveau des enzymes de phosphorylation qui vont le transformer en AZT triphosphate (AZT TP) qui est la forme active du produit. Un excès de thymidine réduit donc très fortement l'activité de l'AZT, ce qui se traduit par une ED₅₀ plus élevée. Par conséquent, si le dérivé de l'AZT doit son activité à la libération d'AZT qui à son tour est phosphorylé en AZT TP, un excès de thymidine aura également pour effet d'élever la ED₅₀ du dérivé. La thymidine étant cytotoxique à la concentration utilisée, il est nécessaire de rajouter de la 2′déoxycytidine pour empêcher cette toxicité.
Les protocoles expérimentaux sont ceux décrits à l'exemple 9 3.1) et 9 3).

[2] = system: virus HIV-1 (souche HTLV-IIIB); experiment: viral antigen expression in HIV-infected HUT-78 cells (indirect immunofluorescence, laser cytofluorescence)
Source text: Les produits (AZT et AZT-5′ hémisuccinyl) à différentes concentrations ont été mis en présence de cellules HUT-78 infectées par le virus HIV-1 (souche HTLV-IIIB) à une multiplicité d'infection de 0.4. Tous les quatre jours, 3/4 du milieu ont été remplacés par du milieu frais. Après douze jours, l'expression des antigènes viraux a été mesurée par immunofluorescence indirecte à l'aide d'un sérum anti-HIV-I positif, et par cytofluorescence laser, tel que décrit par Pauwels et al. J. Virol. Meth. 16, 171-185 (1987).
Des résultats sont exprimés dans le tableau 3 en ED₅₀ et en pourcentage d'effet protecteur selon la formule : [formula] TABLEAU 3

[3] = system: virus HIV-1 (souche HTLV-IIIB); experiment: viral antigen assay in HIV-infected human peripheral blood lymphocytes; conditions: day 14 of culture
Source text: Les lymphocytes ont été extraits d'un concentré plaquettaire par séparation sur gradient de Ficoll et élimination des adhérentes. Après 3 jours de stimulation par la phytohémaglutinine, ils ont été transférés dans un milieu additionné d'interleukine-2 (IL-2) est infectés par le virus HIV-1 (souche HTLV-IIIB). L'AZT et son dérivé 5′ hémisuccinate à différentes concentrations ont été rajoutés aux cellules au moment de l'infection.
Trois jours après l'infection, le milieu a été remplacé par du milieu frais additionné d'IL-2, contenant les produits aux concentrations désirées pour la moitié des cellules, et ne contenant plus de produit pour l'autre moitié. Ensuite, le milieu des cellules a été remplacé à moitié par du milieu frais additionné d'IL-2, contenant ou non les produits aux concentrations désirées, tous les 3 à 4 jours.
La multiplication du virus a été suivie par dosage des antigènes viraux dans les surnageants de culture (Innotest HIV-Organon Teknika).

[4] = system: lignées cellulaires continues; experiment: in vitro toxicity on continuous cell lines (MTT method); conditions: all cell lines tested, comparison with AZT; tableau 8 is an image
Source text: Dans le but d'évaluer la toxicité du dérivé 5′hémisuccinyl de l'AZT, des expériences ont été réalisées sur différentes lignées cellulaires continues.
L'AZT et son dérivé 5′hémisuccinyl à différentes concentrations ont été mis en présence de cellules en phase de croissance. Le nombre de cellules vivantes a été déterminé par la méthode au MTT après 1, 2, 3 et 4 jours de culture. La cytotoxicité a été mesurée et est exprimée sous forme de CD₅₀.
Les lignées cellulaires continues utilisées sont les suivantes : - Cellules en suspension : [formula] - Cellules adhérentes : Hep-G2 : hépatocarcinome humain Hep-2 : carcinome épidermoïde humain
Les résultats sont repris au tableau 8.

[5] = system: cellules de la moëlle osseuse; experiment: toxicity on bone marrow cells (colony count, day 7); conditions: bone marrow cells of a healthy donor, semi-solid medium with GMCSF, colonies at day 7
Source text: Des cellules ont été isolées à partir d'un prélèvement de moëlle osseuse chez un donneur sain. Elles ont été mises en culture en milieu semi-solide (agar) additionné de Granulocyte-Macrophage-Colony Stimulating Factor (GMCSF) en présence d'AZT et d'AZT 5′hémisuccinyl à différentes concentrations. Le nombre de cellules ayant donné naissance à une colonie a été déterminé par comptage de colonies au jour 7.
La toxicité du dérivé est de l'ordre de 10 fois plus faible que celle de l'AZT.

[6] = tableau 4, MT-4, with thymidine (250µM) + 2′déoxy-cytidine (500 µM)
[7] = tableau 4, MT-4, without thymidine / 2′déoxycytidine

SMILES: Cc1cn([C@H]2C[C@H](N=[N+]=[N-])[C@@H](COC(=O)CCC(=O)O)O2)c(=O)[nH]c1=O [AZT 5′hémisuccinyl, 5′-hémisuccinyl-3′-azido-3′-déoxythymidine]
- activité (compared with AZT, in words) ([1]; comparison with AZT): comparable à celle de l'AZT
- indice de sélectivité ([1]; de l'ordre de): ~28 000
- ED₅₀ ([1]; tableau 2, MT4 cells infected with 100 CCID₅₀ HIV-1, 5 days at 37°C, dose that protects 50 % of cells): .0069 µM
- SI ([1]; tableau 2, indice de sélectivité = CD₅₀ sur ED₅₀, MT4 cells): 28543
- SI dérivé/SI AZT ([1]; tableau 2, ratio within the same experiment, MT4 cells): 4.7
- ED₅₀ [1, 6]: 6,8399 µM
- SI [1, 6]: 53
- ED₅₀ [1, 7]: 0,0523 µM
- SI [1, 7]: 5633
- Pourcentage d'effet protecteur ([2]; HUT-78, day 12, concentration 0.022 µM): -23%
- Pourcentage d'effet protecteur ([2]; HUT-78, day 12, concentration 0.11 µM): 48%
- Pourcentage d'effet protecteur ([2]; HUT-78, day 12, concentration 0.54 µM): 21%
- Pourcentage d'effet protecteur ([2]; HUT-78, day 12, concentration 2.71 µM): 72%
- ED₅₀ ([2]; HUT-78 cells, multiplicity of infection 0.4, day 12): ED₅₀ AZT-5′hémisuccinyl = 1,77 µM
- ED₅₀ ([3]; durée d'administration 3 jours): 0.078 µM
- ED₅₀ ([3]; durée d'administration 14 jours): 0.057 µM
- toxicité sur lignées cellulaires continues (in words) [4]: moins toxique que l'AZT
- toxicité plus faible que celle de l'AZT [5]: ~10 fois

From patent EP0357495A2, “3'Azido-3'-deoxythymidine (AZT) derivatives active against the AIDS virus” (IRE-CELLTARG S.A., priority 1988, dated 1990)
